Assay results: PubChem BioAssay AID588585 (The Scripps Research Institute Molecular Screening Center, 2011)
The source made the active and inactive calls.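 The calls were made as follows: active = inhibition of probe labelling of the enzyme band in the gel above 60%; inactive = inhibition at or below 60%.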

The molecules below were run on Fam108b (ABHD17B) serine hydrolase [Mus musculus] (assay: inhibition of membrane-bound mouse Fam108b, SAR follow-up, cell lysate, gel-based competitive ABPP, full-length membrane form, powders (AID 588585)). Conditions: Fam108b membrane proteome, competitive ABPP FP-Rh gel; at 5 µM; hits give high values.

With `COc1ccc(-c2csc3cc(-c4ccccc4Cl)oc(=O)c23)cc1` as the molecule, how does the inhibition read?
Its inhibition is 0% (inactive).

For `COc1ccc(C2NC(=O)c3c(sc(C)c3C)N2)cc1` (centres undefined), which inhibition is on record?
The inhibition was 0% (inactive).

For `O=c1[nH]c(-c2cccs2)nc2scc(-c3ccccc3)c12`, which inhibition is on record?
The inhibition was 0% (inactive).

Which inhibition does the source give for `Cc1ccc(C2NC(=O)c3c(sc4c3CCCC4)N2)cc1` (centres undefined) here?
The inhibition was 0% (inactive).

With `O=c1[nH]c(=S)[nH]c2scc(-c3cccs3)c12` as the molecule, how does the inhibition read?
Its inhibition is 0% (inactive).

With `O=c1c2c(-c3ccccc3)csc2ncn1Cc1ccccc1` as the molecule, how does the inhibition read?
Its inhibition is 0% (inactive).

For `O=c1[nH]c(-c2ccccc2)nc2scc(-c3ccccc3)c12`, which inhibition is on record?
Its inhibition is 0% (inactive).

For `O=c1oc(-c2ccco2)cc2scc(-c3ccc(Br)cc3)c12`, which inhibition is on record?
The inhibition was 0% (inactive).

With `O=c1[nH]c(=S)[nH]c2scc(-c3ccccc3)c12` as the molecule, how does the inhibition read?
Its inhibition is 0% (inactive).

Which inhibition does the source give for `O=c1[nH]c(=O)c2c(-c3ccccc3)csc2[nH]1` here?
The inhibition was 0% (inactive).

For `Cc1ccc(-c2csc3cc(-c4ccc(Br)cc4)oc(=O)c23)cc1`, which inhibition is on record?
The inhibition was 0% (inactive).

`Fc1ccccc1-c1nc2scc(-c3cccs3)c2c(=S)s1` was tested. Which inhibition did it give?
Its inhibition is 0% (inactive).

With `CC(C)(C)c1nc2scc(-c3ccccc3)c2c(=S)s1` as the molecule, how does the inhibition read?
The inhibition was 0% (inactive).

Which inhibition does the source give for `O=c1[nH]c(-c2ccccc2)nc2scc(-c3cccs3)c12` here?
The inhibition was 0% (inactive).
